Reference: US20100061928A1, “LABELLED ANALOGUES OF HALOBENZAMIDES AS RADIOPHARMACEUTICALS” (Institut National De La Sante et De La Recherche Medicale …, priority 2006, published 2010)

Columns and labels:
[1] = tested on: B16 F0 murine melanoma cells; assay: Colony forming technique: chemotherapeutic and radiotherapeutic (^125I) effects in vitro; format: cell-based; details: for % of inhibition: radiotherapeutic effects alone
Procedure: The colony forming technique is involved, that is to say the growth of colonies of clones starting from tumour cells (B16 F0 murine melanoma cells) inoculated at a low concentration. This method makes it possible to visualize the cytotoxic and cytostatic properties of the compounds studied. The study was carried out in three parts:
The experiment is carried out on 6-well plates where 200 cells are inoculated in 2 ml of DMEM medium. After 20 hours, the medium is withdrawn and replaced with 2 ml of medium comprising the labelled compound at the desired concentration. This study is carried out in comparison with control wells comprising DMEM medium alone. […] The plates are incubated for 8 days and then the medium is withdrawn. The wells are rinsed with PBS and methanol is added for 3 minutes. Once attached, the cells are coloured with crystal violet with a contact time of 3 minutes. Subsequently, the colonies comprising more than 50 cells are counted using a dedicated counter. The growth of the treated colonies of cells is quantified in comparison with the controls. The activity of the product is expressed by a percentage of inhibition:
100−[(number of treated colonies)/(number of control colonies)]×100

[2] = tested on: grafted B16 F0 murine melanoma tumour; assay: Biodistribution of the ^125I-labelled molecules in the melanoma-bearing mouse (autoradiography of whole-body sections); details: for Biodistribution, Mean, B 16: B 16 tumour
[3] = Elimination of the molecules: cumulative urinary and faecal excretion 0-72 hours; format: in vivo, mouse
tumour = assay: Dosimetry with regard to the tumour (MIRD programme, extrapolated to ^131I)

[125I-].[Na+] [Na^125I, sodium iodide Na^125I, reference compound]
effect on colony growth (in words) ([1]; comparison for the compounds labelled with iodine-125 with a high specific activity): without effect

CCN(CC)CCNC(=O)c1cccc2c(=O)c3cc([125I])ccc3[nH]c12.Cl.Cl [[^125I]-84, [^125I]-N-(2-diethylaminoethyl)-9,10-dihydro-7-iodo-9-oxoacridine-4-carboxamide dihydrochloride]
Cumulative effect (% inhib) ([1]; cold compound 84 at 0.75 μM with labelled [^125I]-84, activity 0): 17.3 % inhib | Cumulative effect (% inhib) ([1]; cold compound 84 at 0.75 μM with labelled [^125I]-84, activity 1.5 kBq): 18.3 % inhib | Cumulative effect (% inhib) ([1]; cold compound 84 at 0.75 μM with labelled [^125I]-84, activity 6 kBq): 22 % inhib | Cumulative effect (% inhib) ([1]; cold compound 84 at 0.75 μM with labelled [^125I]-84, activity 12 kBq): 40.3 % inhib | Cumulative effect (% inhib) ([1]; cold compound 84 at 0.75 μM with labelled [^125I]-84, activity 24 kBq): 54 % inhib | Cumulative effect (% inhib) ([1]; cold compound 84 at 0.75 μM with labelled [^125I]-84, activity 48 kBq): 88 % inhib | % of inhibition ([1]; activity 1.5 kBq, concentration 9.31 pM): 4.5% | % of inhibition ([1]; activity 6 kBq, concentration 37.23 pM): 12.4% | % of inhibition ([1]; activity 12 kBq, concentration 74.5 pM): 29% | % of inhibition ([1]; activity 24 kBq, concentration 148.9 pM): 30% | % of inhibition ([1]; activity 48 kBq, concentration 297.8 pM): 69%

CCN(CC)CCNC(=O)c1cnc2cc(I)ccc2n1.Cl.Cl [compound 46, N-(2-diethylaminoethyl)-6-iodoquinoxaline-2-carboxamide dihydrochloride]
Biodistribution, Mean, B 16 ([2]; 1 H): 17.00 | Biodistribution, Mean, B 16 ([2]; 3 H): 27.68 | Biodistribution, Mean, B 16 ([2]; 6 H): 40.70 | Biodistribution, Mean, B 16 ([2]; 24 H): 21.67 | Biodistribution, Mean, B 16 ([2]; 72 H): 12.45 | Biodistribution, Mean, BM ([2]; BM, 1 H): 4.58 | Biodistribution, Mean, GB ([2]; GB, 6 H): 33.38 | Biodistribution, Mean, Ic ([2]; 1 H): 15.22 | Biodistribution, Mean, Ic ([2]; 3 H): 14.63 | Biodistribution, Mean, Ic ([2]; 6 H): 17.45 | Biodistribution, Mean, Sc ([2]; 1 H): 24.33 | Biodistribution, Mean, Sc ([2]; 3 H): 20.33 | Biodistribution, Mean, Sc ([2]; 6 H): 21.09 | Biodistribution, Mean, Sc ([2]; 72 H): 2.23 | tumour concentration, times higher than with BZA ([2]; at 72 hours (FIG. 1B)): 16 times | Biodistribution, Mean, blood ([2]; 1 H): 3.45 | Biodistribution, Mean, blood ([2]; 3 H): 2.91 | Biodistribution, Mean, blood ([2]; 6 H): 3.09 | Biodistribution, Mean, brain ([2]; 1 H): 2.34 | Biodistribution, Mean, brain ([2]; 3 H): 1.03 | tumour concentration, % of the injected dose per gram of tumour ([2]; from the first hour): 17 % ID/g | Biodistribution, Mean, kidney ([2]; 1 H): 16.46 | Biodistribution, Mean, kidney ([2]; 3 H): 9.30 | Biodistribution, Mean, kidney ([2]; 6 H): 7.69 | Biodistribution, Mean, liver ([2]; 1 H): 13.18 | Biodistribution, Mean, liver ([2]; 3 H): 8.87 | Biodistribution, Mean, liver ([2]; 6 H): 7.53 | Biodistribution, Mean, liver ([2]; 24 H): 1.49 | Biodistribution, Mean, lungs ([2]; 1 H): 7.83 | Biodistribution, Mean, lungs ([2]; 3 H): 5.68 | Biodistribution, Mean, lungs ([2]; 6 H): 4.46 | Biodistribution, Mean, muscle ([2]; 1 H): 2.04 | Biodistribution, Mean, muscle ([2]; 3 H): 0.86 | Biodistribution, Mean, muscle ([2]; 6 H): 0.87 | Biodistribution, Mean, pancreas ([2]; pancreas, 1 H): 7.60 | Biodistribution, Mean, spleen ([2]; 1 H): 14.21 | Biodistribution, Mean, spleen ([2]; 3 H): 4.69 | Biodistribution, Mean, thyroid ([2]; 3 H): 39.76 | Biodistribution, Mean, thyroid ([2]; 6 H): 83.77 | Biodistribution, Mean, thyroid ([2]; 24 H): 94.22 | Biodistribution, Mean, uvea ([2]; 1 H): 33.82 | Biodistribution, Mean, uvea ([2]; 3 H): 24.79 | Biodistribution, Mean, uvea ([2]; 6 H): 32.30 | Biodistribution, Mean, uvea ([2]; 24 H): 32.44 | Biodistribution, Mean, uvea ([2]; 72 H): 25.26 | Faecal elimination 0-72 hours (Faeces) ([3]; cumulative excretion 0-72 hours, faeces, mice in metabolic cages): 18.0% | Urinary and faecal elimination 0-72 hours (Total) ([3]; cumulative excretion 0-72 hours, urine + faeces): 88.2% | Urinary elimination 0-72 hours (Urine) ([3]; cumulative excretion 0-72 hours, urine, mice in metabolic cages): 70.2% | elimination route (in words) ([3]; urinary versus faecal, 0-72 hours): predominantly in the urine | Effective period (tumour; extrapolated to 131I labelling): 49.3 h | Biological period (tumour; from biodistribution data): 66.1 hours
